In ChEMBL document CHEMBL1909046, “DrugMatrix in vitro pharmacology data”:

Key:
[1] = DRUGMATRIX: Sodium/nucleoside co-transporter radioligand binding (ligand: nitrobenzylthioinosine); assay type: cell membranes, Cavia porcellus, Dunkin-Hartley, Cerebral cortex, Membrane; conditions: Not Active = under 50% inhibition at 10 µM
[2] = biological target: 5-hydroxytryptamine receptor 6 (Homo sapiens, UniProt P50406); assay type: cell membranes, HeLa, Membrane; note: in other assays of this panel Not Active means under 50% inhibition at 10 µM
5-hydroxytryptamine receptor 6, sequence (P50406 whole entry): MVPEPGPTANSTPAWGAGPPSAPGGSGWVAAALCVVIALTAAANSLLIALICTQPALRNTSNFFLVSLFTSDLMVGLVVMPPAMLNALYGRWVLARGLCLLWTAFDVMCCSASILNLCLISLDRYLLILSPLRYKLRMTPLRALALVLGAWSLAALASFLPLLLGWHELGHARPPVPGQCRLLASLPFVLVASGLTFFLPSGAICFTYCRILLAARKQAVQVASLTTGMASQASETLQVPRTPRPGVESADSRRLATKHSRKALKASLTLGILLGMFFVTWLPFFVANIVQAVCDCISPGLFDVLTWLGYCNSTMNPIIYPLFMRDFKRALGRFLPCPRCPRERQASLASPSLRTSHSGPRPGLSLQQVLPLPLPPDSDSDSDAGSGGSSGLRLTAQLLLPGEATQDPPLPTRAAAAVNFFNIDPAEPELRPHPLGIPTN

[3] = biological target: Vasopressin V1a receptor (Homo sapiens, UniProt P37288); assay type: cell membranes, Membrane; conditions: hek293; note: in other assays of this panel Not Active means under 50% inhibition at 10 µM
Vasopressin V1a receptor, sequence (P37288 whole entry): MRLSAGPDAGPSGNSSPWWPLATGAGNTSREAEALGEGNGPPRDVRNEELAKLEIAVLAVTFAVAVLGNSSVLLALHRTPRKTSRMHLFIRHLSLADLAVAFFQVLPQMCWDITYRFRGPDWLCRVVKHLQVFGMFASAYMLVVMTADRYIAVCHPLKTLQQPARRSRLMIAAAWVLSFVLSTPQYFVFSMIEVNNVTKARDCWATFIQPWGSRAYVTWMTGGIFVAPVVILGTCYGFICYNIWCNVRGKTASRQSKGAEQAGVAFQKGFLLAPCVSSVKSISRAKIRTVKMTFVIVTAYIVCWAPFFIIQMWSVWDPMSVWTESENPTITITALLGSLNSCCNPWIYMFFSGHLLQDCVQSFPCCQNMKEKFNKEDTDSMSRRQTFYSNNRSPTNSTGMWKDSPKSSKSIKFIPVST

[4] = DRUGMATRIX: Calcium Channel Type L, Phenylalkylamine radioligand binding (ligand: [3H] (-)-Desmethoxyverapamil (D-888)); assay type: cell membranes, Rattus norvegicus, Wistar, Brain, Membrane; conditions: Not Active = under 50% inhibition at 10 µM
[5] = DRUGMATRIX: Glutamate, NMDA, Agonism radioligand binding (ligand: [3H] CGP-39653); assay type: cell membranes, Rattus norvegicus, Wistar, Cerebral cortex, Membrane; conditions: Not Active = under 50% inhibition at 10 µM
[6] = biological target: Epidermal growth factor receptor (Homo sapiens, UniProt P00533); test: DRUGMATRIX: Protein Tyrosine Kinase, EGF Receptor enzyme inhibition (substrate: Poly(Glu:Tyr)); assay type: cell-based, Insect cells; conditions: Not Active = under 50% inhibition at 10 µM

Compound | IC50 [1] | Ki [1] | IC50 ([2]; hela) | IC50 [3] | IC50 [4] | Ki [4] | IC50 [5] | Ki [5] | IC50 ([6]; insect cells) | IC50 ([1]; read-out: IC50) [µM] | Ki ([1]; read-out: Ki) [µM] | IC50 ([2]; read-out: IC50) [µM] | Ki ([2]; read-out: Ki) [µM] | IC50 ([4]; read-out: IC50) [µM] | Ki ([4]; read-out: Ki) [µM] | Ki ([2]; hela) | Ki [3] | Ki ([6]; insect cells) | IC50 ([6]; read-out: IC50) [µM]
CC[C@@]1(O)C(=O)OCc2c1cc1n(c2=O)Cc2cc3c(CN(C)C)c(O)ccc3nc2-1 [TOPOTECAN] | Not Active | Not Active | Not Active | Not Active | Not Active | Not Active | Not Active | Not Active | Not Active |  |  |  |  |  |  |  |  |  | 
C#C[C@]1(O)CC[C@H]2[C@@H]3[C@H](C)CC4=C(CCC(=O)C4)[C@H]3CC[C@@]21C [TIBOLONE] | Not Active | Not Active | Not Active | Not Active | Not Active | Not Active | Not Active | Not Active | Not Active |  |  |  |  |  |  |  |  |  | 
Oc1ccc(/C=C/c2cc(O)cc(O)c2)cc1 [RESVERATROL] | Not Active | Not Active | Not Active | Not Active | Not Active | Not Active | Not Active | Not Active | Not Active |  |  |  |  |  |  |  |  |  | 
Cc1ccc(Cl)c(Nc2ccccc2C(=O)O)c1Cl [MECLOFENAMIC ACID] | Not Active | Not Active | Not Active | Not Active | Not Active | Not Active | Not Active | Not Active | Not Active |  |  |  |  |  |  |  |  |  | 
Cc1ccnc(NS(=O)(=O)c2ccc(N)cc2)n1 [SULFAMERAZINE] | Not Active | Not Active | Not Active | Not Active | Not Active | Not Active | Not Active | Not Active | Not Active |  |  |  |  |  |  |  |  |  | 
CCOc1cc(N)c(Cl)cc1C(=O)NCC1CN(Cc2ccc(F)cc2)CCO1 (stereo not drawn) [MOSAPRIDE] | Not Active | Not Active | Not Active | Not Active | Not Active | Not Active | Not Active | Not Active | Not Active |  |  |  |  |  |  |  |  |  | 
C[C@]12CCC(=O)C[C@@H]1CC[C@@H]1[C@@H]2CC[C@]2(C)[C@@H](O)CC[C@@H]12 [STANOLONE] | Not Active | Not Active | Not Active | Not Active | Not Active | Not Active | Not Active | Not Active | Not Active |  |  |  |  |  |  |  |  |  | 
C[N+]1(C)[C@@H]2C[C@@H](OC(=O)[C@H](CO)c3ccccc3)C[C@H]1[C@@H]1O[C@@H]12.[Br-] [METHSCOPOLAMINE BROMIDE] | Not Active | Not Active | Not Active | Not Active | Not Active | Not Active | Not Active | Not Active | Not Active |  |  |  |  |  |  |  |  |  | 
OC[C@@H](O)[C@@H](O)[C@H](O)[C@H](O)CO [MANNITOL] | Not Active | Not Active | Not Active | Not Active | Not Active | Not Active | Not Active | Not Active | Not Active |  |  |  |  |  |  |  |  |  | 
O=C(O)c1cc(/N=N/c2ccc(S(=O)(=O)Nc3ccccn3)cc2)ccc1O [SULFASALAZINE] | Not Active | Not Active | Not Active | Not Active | Not Active | Not Active | Not Active | Not Active | Not Active |  |  |  |  |  |  |  |  |  | 
CC1=C(/C=C/C(C)=C/C=C/C(C)=C/C(=O)O)C(C)(C)CCC1 [TRETINOIN] | Not Active | Not Active | Not Active | Not Active | Not Active | Not Active | Not Active | Not Active | Not Active |  |  |  |  |  |  |  |  |  | 
CC[C@H](C)C(=O)O[C@H]1CCC=C2C=C[C@H](C)[C@H](CC[C@@H]3C[C@@H](O)CC(=O)O3)[C@H]21 [MEVASTATIN] | Not Active | Not Active | Not Active | Not Active | Not Active | Not Active | Not Active | Not Active | Not Active |  |  |  |  |  |  |  |  |  | 
CCN(CC)C(=S)SSC(=S)N(CC)CC |  |  |  | Not Active | Not Active | Not Active | Not Active | Not Active | Not Active | 16.9 | 5.79 | 16 | 7.43 |  |  |  |  |  | 
O=[As][O-].[Na+] [SODIUM ARSENITE] | Not Active | Not Active | Not Active | Not Active | Not Active | Not Active | Not Active | Not Active | Not Active |  |  |  |  |  |  |  |  |  | 
CCN(CC)N=O [N-NITROSODIETHYLAMINE] | Not Active | Not Active | Not Active | Not Active | Not Active | Not Active | Not Active | Not Active | Not Active |  |  |  |  |  |  |  |  |  | 
Nc1nc(N)c2nc(-c3ccccc3)c(N)nc2n1 | Not Active | Not Active | Not Active | Not Active | Not Active | Not Active | Not Active | Not Active | Not Active |  |  |  |  |  |  |  |  |  | 

Compound | IC50 [1] | Ki [1] | IC50 ([2]; hela) | IC50 [3] | IC50 [4] | Ki [4] | IC50 [5] | Ki [5] | IC50 ([6]; insect cells) | IC50 ([1]; read-out: IC50) [µM] | Ki ([1]; read-out: Ki) [µM] | IC50 ([2]; read-out: IC50) [µM] | Ki ([2]; read-out: Ki) [µM] | IC50 ([4]; read-out: IC50) [µM] | Ki ([4]; read-out: Ki) [µM] | Ki ([2]; hela) | Ki [3] | Ki ([6]; insect cells) | IC50 ([6]; read-out: IC50) [µM]
CCN(CC)CCNC(=O)c1cc(Cl)c(N)cc1OC [METOCLOPRAMIDE] | Not Active | Not Active | Not Active | Not Active | Not Active | Not Active | Not Active | Not Active | Not Active |  |  |  |  |  |  |  |  |  | 
Cc1cc2c(s1)Nc1ccccc1N=C2N1CCN(C)CC1 [OLANZAPINE] |  |  |  | Not Active |  |  |  |  | Not Active |  |  |  |  |  |  |  |  |  | 
Cc1nnc(NS(=O)(=O)c2ccc(N)cc2)s1 [SULFAMETHIZOLE] | Not Active | Not Active | Not Active | Not Active | Not Active | Not Active | Not Active | Not Active | Not Active |  |  |  |  |  |  |  |  |  | 
CC#C[C@]1(O)CC[C@H]2[C@@H]3CCC4=CC(=O)CCC4=C3[C@@H](c3ccc(N(C)C)cc3)C[C@@]21C [MIFEPRISTONE] | Not Active | Not Active | Not Active | Not Active |  |  | Not Active | Not Active | Not Active |  |  |  |  | 16 | 15.6 |  |  |  | 
CS(=O)(=O)c1ccc(C2=C(c3ccccc3)C(=O)OC2)cc1 [ROFECOXIB] | Not Active | Not Active | Not Active | Not Active | Not Active | Not Active | Not Active | Not Active | Not Active |  |  |  |  |  |  |  |  |  | 
CC1(C)[C@H](C(=O)O)N2C(=O)C[C@H]2S1(=O)=O [SULBACTAM] | Not Active | Not Active | Not Active | Not Active | Not Active | Not Active | Not Active | Not Active | Not Active |  |  |  |  |  |  |  |  |  | 
CO[C@@H]1[C@@H](OC)[C@H](C)[C@@](O)(CC(=O)O)O[C@H]1[C@H](C)[C@H]1O[C@@]2(CC[C@@](C)([C@H]3CC[C@@](C)([C@@H]4O[C@@H]([C@H]5O[C@](C)(O)[C@H](C)C[C@@H]5C)C[C@@H]4O[C@@H]4C[C@H](OC)[C@@H](OC)[C@H](C)O4)O3)O2)C[C@H](O)[C@H]1C.N [MADURAMICIN] | Not Active | Not Active | Not Active | Not Active | Not Active | Not Active | Not Active | Not Active | Not Active |  |  |  |  |  |  |  |  |  | 
CNCCCC12CCC(c3ccccc31)c1ccccc12 [MAPROTILINE] |  |  |  | Not Active |  |  |  |  | Not Active |  |  | 0.892 | 0.414 |  |  |  |  |  | 
LEAD(IV) ACETATE | Not Active | Not Active | Not Active | Not Active | Not Active | Not Active | Not Active | Not Active | Not Active |  |  |  |  |  |  | Not Active | Not Active | Not Active | 
O=C(c1ccccc1)c1ccc2n1CCC2C(=O)O (stereo not drawn) [KETOROLAC] | Not Active | Not Active | Not Active | Not Active | Not Active | Not Active | Not Active | Not Active | Not Active |  |  |  |  |  |  |  |  |  | 
CC[C@H](C)[C@@H](CO[C@@H](Cc1ccccc1)C(=O)N[C@@H](CCS(C)(=O)=O)C(=O)OC(C)C)NC[C@@H](N)CS | Not Active | Not Active | Not Active | Not Active | Not Active | Not Active | Not Active | Not Active |  |  |  |  |  |  |  |  |  |  | 3.22
CN1C(=O)OC(C)(C)C1=O [TRIMETHADIONE] | Not Active | Not Active | Not Active | Not Active | Not Active | Not Active | Not Active | Not Active | Not Active |  |  |  |  |  |  |  |  |  | 
CCC(C)(C)C(=O)O[C@H]1C[C@@H](C)C=C2C=C[C@H](C)[C@H](CC[C@@H]3C[C@@H](O)CC(=O)O3)[C@H]21 [SIMVASTATIN] | Not Active | Not Active | Not Active | Not Active | Not Active | Not Active | Not Active | Not Active | Not Active |  |  |  |  |  |  |  |  |  | 
CN(C)CCC=C1c2ccccc2COc2ccccc21 [DOXEPIN] |  |  |  | Not Active |  |  |  |  | Not Active |  |  |  |  |  |  |  |  |  | 
COC(=O)Nc1nc2ccc(C(=O)c3ccccc3)cc2[nH]1 [MEBENDAZOLE] | Not Active | Not Active | Not Active | Not Active | Not Active | Not Active | Not Active | Not Active |  |  |  |  |  |  |  |  |  |  | 
